Patent US9181577B2, “Treatment of chronic pelvic pain syndrome” (Northwestern University, priority 2010, dated 2015)

The compounds below were run on pelvic pain behavior in EAP NOD mice (assay: Mast cell function inhibitors on established pelvic pain behavior in EAP model (von Frey tactile allodynia)). Conditions: 10 mg/kg each drug, intraperitoneal, at day 10 after PAg injection; tested one hour after drug administration.
Assay type: in vivo
Description: Mice injected with rat prostate antigen (PAg) were tested at baseline and 10 days after injection for the development of pain behavior. Mice were treated at day 10 by intraperitoneal injection with saline (Control, A), 10 mg/kg each of cetrizine (H1, B), ranitidine (H2, C), Cromolyn sodium (MC stabilizer, D) or all three drugs (Combination, E) in a 200 μl volume. Following blinding of treatment and control groups, pelvic pain behavior was tested one hour after drug administration.
The experimental autoimmune prostatitis (EAP) model was selected for experiments conducted during development of embodiments of the present invention. Autoimmunity is one of the etiologies for patients with CPPS. Rat prostate antigen instillation in NOD mice provokes a chronic inflammation that is multifocal and evenly distributed in all the prostatic lobes. Pelvic pain was examined in NOD and C57BL/6 (B6) mice using quantitative behavior testing methods to assess tactile sensitivity of the suprapubic region. […] When expressed as increase in pain from baseline there was an approximately 350% increase in pain behavior compared to sham controls (SEE FIG. 1). This indicates the development of chronic pelvic pain in EAP mice and is the first report of chronic pain symptoms in an animal model of prostatitis.
Pelvic pain behavior in the EAP model was inhibited following the establishment of pain. EAP was induced in NOD mice and pelvic pain behavior at baseline and 10 days after disease onset was measured. Mice were administered a mast cell stabilizer, cromolyn sodium; a histamine receptor 1 antagonist, cetirizine; a histamine receptor 2 antagonist, ranitidine; and a combination of all three pharmacological agents or saline as control. Pelvic pain behavior was tested one hour after drug administration.

Compound | reduction of pain behavior
CNC(=C[N+](=O)[O-])NCCSCc1ccc(CN(C)C)o1 [ranitidine] | 15.9%
O=C(O)c1cc(=O)c2c(OCC(O)COc3cccc4oc(C(=O)O)cc(=O)c34)cccc2o1 [cromolyn sodium] | 39.6%
O=C(O)COCCN1CCN(C(c2ccccc2)c2ccc(Cl)cc2)CC1 (stereo not drawn) [cetirizine] | 13.6%
